The text below walks through data of the Kinase Knowledgebase extract (Sharma et al. 2016).

Each structure is given as a SMILES string.

The target in the assay is PIK3CA (human) (UniProt P42336). Put plainly: Assessment of PIK3CA Kinase Activity.
PIK3CA (human), sequence (P42336 whole entry, looked up): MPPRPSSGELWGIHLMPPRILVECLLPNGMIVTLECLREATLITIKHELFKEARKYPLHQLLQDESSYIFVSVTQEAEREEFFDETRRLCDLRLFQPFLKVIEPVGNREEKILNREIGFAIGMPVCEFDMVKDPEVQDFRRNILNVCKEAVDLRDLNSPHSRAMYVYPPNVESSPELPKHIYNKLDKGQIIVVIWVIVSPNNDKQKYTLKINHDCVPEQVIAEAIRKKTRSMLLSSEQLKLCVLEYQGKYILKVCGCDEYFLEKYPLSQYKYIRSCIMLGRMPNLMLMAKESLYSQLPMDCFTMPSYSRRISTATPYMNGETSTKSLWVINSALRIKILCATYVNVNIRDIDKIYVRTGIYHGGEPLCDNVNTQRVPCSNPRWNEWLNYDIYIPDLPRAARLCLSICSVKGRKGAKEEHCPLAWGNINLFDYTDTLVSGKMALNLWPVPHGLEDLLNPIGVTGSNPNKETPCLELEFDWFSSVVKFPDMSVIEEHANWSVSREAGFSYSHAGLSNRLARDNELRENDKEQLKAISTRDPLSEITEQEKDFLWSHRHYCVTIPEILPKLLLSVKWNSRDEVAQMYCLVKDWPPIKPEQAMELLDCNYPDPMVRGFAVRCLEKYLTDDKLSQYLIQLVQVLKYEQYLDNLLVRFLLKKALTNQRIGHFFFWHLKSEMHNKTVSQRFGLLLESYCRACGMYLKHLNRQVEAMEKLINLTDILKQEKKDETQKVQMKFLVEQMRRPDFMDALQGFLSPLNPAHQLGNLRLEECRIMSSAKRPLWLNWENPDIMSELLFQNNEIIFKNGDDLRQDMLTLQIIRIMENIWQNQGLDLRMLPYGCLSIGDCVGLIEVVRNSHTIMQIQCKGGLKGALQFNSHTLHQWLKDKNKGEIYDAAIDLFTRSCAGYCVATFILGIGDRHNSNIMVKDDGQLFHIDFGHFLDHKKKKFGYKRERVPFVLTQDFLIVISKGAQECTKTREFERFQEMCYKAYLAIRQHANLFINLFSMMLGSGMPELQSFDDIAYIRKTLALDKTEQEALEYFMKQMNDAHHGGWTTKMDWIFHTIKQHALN
What is called IC50 is the concentration that inhibits the measured activity by half. A higher IC50 goes with lower potency. In turn, `CNC(=O)Cn1ccnc1-c1nc2c(s1)CCOc1cc(-c3cnn(CC(C)(C)O)c3)ccc1-2` had an IC50 of under 1000 nM.

`CC(C)(C(=O)O)n1cc(-c2ccc3c(c2)OCCc2sc(-c4ncnn4CC(F)(F)F)nc2-3)cn1` showed an IC50 of under 1000 nM.

As to `O=C(c1nc2c(s1)CCOc1cc(-c3cn[nH]c3)ccc1-2)N1CCCC1`, the IC50 is under 1000 nM.

Take `Cc1nc(-c2nc3c(s2)CCOc2cc(C4CN(C[C@H](O)CO)C4)ccc2-3)n(C(C)C)n1`: the IC50 is under 1000 nM.

Regarding `Cc1nc(-c2nc3c(s2)CCOc2cc(-c4cnn(C5CNC5)c4)ccc2-3)n(C(C)C)n1`, the IC50 was under 1000 nM.

For the compound `COCC1CCN(C(=O)c2nc3c(s2)CCOc2cc(-c4cn[nH]c4)ccc2-3)CC1`, the IC50 was under 1000 nM.

On to `CNC(=O)c1ccc2c(c1)OCCc1cc(C(=O)N(C)c3cc(C(=O)N4CC(F)(F)C4)ccc3Cl)sc1-2`, for which the concentration for half-maximal inhibition (IC50) was under 1000 nM.

`CC(C)n1ncnc1-c1nc2c(s1)CCOc1ccc(-c3cccn(CC(=O)O)c3=O)cc1-2` gave an IC50 of under 1000 nM.

In the case of `CN1CCC(n2ncnc2-c2nc3c(s2)CCOc2cc(-c4cnn(CC(C)(C)O)c4)ccc2-3)CC1`, the IC50 is under 1000 nM.

Compound `C[C@H](O)C(=O)N1CC(Nc2ccc3c(n2)-c2sc(-c4ncnn4-c4ccc(F)cc4F)cc2CCO3)C1` registered an IC50 of under 1000 nM.

In turn, `CNC(=O)c1ccc2c(c1)OCCc1cc(C(=O)N(C)c3cc(C(=O)NC[C@H](C)O)ccc3Cl)sc1-2` came in with an IC50 of under 1000 nM.

In turn, `CNC(=O)c1ccc2c(c1)OCCc1cc(C(=O)N(C)c3cc(C(=O)N4CCNCC4)ccc3Cl)sc1-2` showed an IC50 of under 1000 nM.

In turn, `COCC(O)Cn1cc(-c2ccc3c(c2)OCCc2sc(-c4nc(C)nn4C(C)C)nc2-3)cn1` (configuration not stated) had a half-maximal inhibitory concentration (IC50) of under 1000 nM.

As for `Fc1ccc(-n2ncnc2-c2cc3c(s2)-c2nc(NCCN4CCCC4)ccc2OCC3)c(F)c1`, the IC50 was under 1000 nM.

Take `Cc1nc(-c2nc3c(s2)CCOc2cc(C(C)NC(N)=O)ccc2-3)n(C(C)C)n1` (configuration not stated): the 50% inhibitory concentration (IC50) is under 1000 nM.

`CC(C)(O)Cn1cc(-c2ccc3c(c2)OCCc2sc(-c4nccn4C4CNC4)nc2-3)cn1` displayed an IC50 of under 1000 nM.

The compound `Cc1nc(-c2nc3c(s2)CCOc2cc([C@H]4CCCNC4)ccc2-3)n(C(C)C)n1` came in with an IC50 of under 1000 nM.

With `OCCn1cc(-c2ccc3c(c2)OCCc2sc(-c4ncnn4CC(F)(F)F)nc2-3)cn1`, the IC50 is under 1000 nM.

Take `Fc1ccc(-n2ncnc2-c2cc3c(s2)-c2nc(NCCN4CCOCC4)ccc2OCC3)c(F)c1`: the IC50 is under 1000 nM.

Regarding `CN1CC(C)(C)N(c2nc3c(s2)CCOc2cc(-c4cnn(CC(C)(C)O)c4)ccc2-3)C1=O`, the IC50 is under 1000 nM.

In turn, `COc1ccc(-c2ccc3c(c2)-c2nc(-c4ncnn4C(C)C)sc2CCO3)cn1` showed an IC50 of under 1000 nM.

Regarding `Cc1nc(-c2nc3c(s2)CCOc2cc(C4CN(CC(=O)NC(C)C)C4)ccc2-3)n(C(C)C)n1`, the IC50 is under 1000 nM.

For `C[C@@H]1CCN(C(=O)c2nc3c(s2)CCOc2cc(-c4cn[nH]c4)ccc2-3)C1`, the IC50 was under 1000 nM.

Regarding `Cc1nc(-c2nc3c(s2)CCOc2cc(C4CN(CCO)C4)ccc2-3)n(C(C)C)n1`, the IC50 was under 1000 nM.

In the case of `O=C(c1nc2c(s1)CCOc1cc(-c3cn[nH]c3)ccc1-2)N1CCCC[C@@H]1CO`, the IC50 was under 1000 nM.

In turn, `CC(C)(O)Cn1cc(-c2ccc3c(c2)OCCc2sc(C(=O)N(CCO)C4CCOCC4)nc2-3)cn1` registered an IC50 of under 1000 nM.

In the case of `CC(C)Oc1cc(-c2ccc3c(c2)-c2nc(-c4ncnn4C(C)C)sc2CCO3)ccn1`, the IC50 was under 1000 nM.

Compound `CC(C)N(CCO)C(=O)c1nc2c(s1)CCOc1ccc(-c3cnc(N)nc3)cc1-2` yielded an IC50 of under 1000 nM.

`O=S1(=O)CCN(c2ccc3c(n2)-c2sc(-c4ncnn4-c4ccc(F)cc4F)cc2CCO3)CC1` returned an IC50 of under 1000 nM.

For `CC(C)n1ncnc1-c1nc2c(s1)CCOc1cc(C3CN(C(C)(C)CO)C3)ccc1-2`, the IC50 was under 1000 nM.

Regarding `CC(C)n1nc(N)nc1-c1nc2c(s1)CCOc1cc(F)ccc1-2`, the IC50 was under 1000 nM.

Take `Fc1ccc(-n2ncnc2-c2cc3c(s2)-c2nc(-c4ccc(N5CCCCC5)nc4)ccc2OCC3)c(F)c1`: the half-inhibitory concentration (IC50) is under 1000 nM.

`CNC1CCN(C(=O)c2nc3c(s2)CCOc2cc(-c4cn[nH]c4)ccc2-3)C1` (configuration not stated) came in with an IC50 of under 1000 nM.

Regarding `COCCOc1ncccc1-c1ccc2c(c1)-c1nc(-c3ncnn3C(C)C)sc1CCO2`, the IC50 was under 1000 nM.

`Fc1ccc(-n2ncnc2-c2cc3c(s2)-c2ccc(C4CNC4)cc2OCC3)c(F)c1` gave an IC50 of under 1000 nM.

For `CC(C)n1ncnc1-c1nc2c(s1)CCOc1cc(C3CCN(CC(N)=O)CC3)ccc1-2`, the IC50 is under 1000 nM.

Compound `CC(C)n1ncnc1-c1nc2c(s1)CCOc1ccc(-c3ccc(F)nc3)cc1-2` gave an IC50 of under 1000 nM.

For the compound `CN(C)[C@@H]1CCN(C(=O)c2nc3c(s2)CCOc2cc(-c4cn[nH]c4)ccc2-3)C1`, the IC50 is under 1000 nM.

Consider `CC(C)n1ncnc1-c1nc2c(s1)CCOc1ccc(-c3ccc(=O)n(C)c3)cc1-2`, for which the IC50 was under 1000 nM.

For `Fc1ccc(-n2ncnc2-c2cc3c(s2)-c2nc(NC4CCOCC4)ccc2OCC3)c(F)c1`, the IC50 is under 1000 nM.

Compound `C[C@H](O)CNC(=O)c1ccc(Cl)c(N(C)C(=O)c2cc3c(s2)-c2ccc(C(=O)NCCS(C)(=O)=O)cc2OCC3)c1` showed an IC50 of under 1000 nM.

`C[C@@H]1CCCN(C(=O)c2nc3c(s2)CCOc2cc(-c4cn[nH]c4)ccc2-3)C1` gave an IC50 of under 1000 nM.

Compound `CC(C)n1ncnc1-c1cc2c(s1)-c1ccc(-c3cnn(CCO)c3)cc1OCC2` returned a 50% inhibitory concentration (IC50) of under 1000 nM.

On to `O=C(O)C1CCCN(C(=O)c2nc3c(s2)CCOc2cc(-c4cn[nH]c4)ccc2-3)C1` (configuration not stated), for which the IC50 was under 1000 nM.

`COCC(O)CN1CC(c2ccc3c(c2)OCCc2sc(-c4nc(C)nn4C(C)C)nc2-3)C1` (configuration not stated) displayed an IC50 of under 1000 nM.

Consider `CC(C)n1ncnc1-c1nc2c(s1)CCOc1ccc(-c3ccc(N4CCOCC4)nc3)cc1-2`, for which the IC50 was under 1000 nM.

As for `CNc1ccc(-c2ccc3c(c2)-c2nc(C(=O)N(CCO)C(C)C)sc2CCO3)cn1`, the IC50 is under 1000 nM.

On to `CC(C)N(CCO)C(=O)c1nc2c(s1)CCOc1cc(-c3cnn(CCN4CCOCC4)c3)ccc1-2`, for which the IC50 is under 1000 nM.

The compound `O=C(c1nc2c(s1)CCOc1cc(-c3cn[nH]c3)ccc1-2)N1CCN(c2ccccn2)CC1` registered an IC50 of under 1000 nM.

In turn, `CC(C)n1cnnc1-c1nc2c(s1)CCOc1cc(C(=O)Nc3ccon3)ccc1-2` displayed an IC50 of under 1000 nM.

Compound `CC(C)N(CCO)C(=O)c1nc2c(s1)CCOc1ccc(-c3cnn(CC(C)(C)O)c3)cc1-2` registered an IC50 of under 1000 nM.

`CC(C)(O)Cn1cc(-c2ccc3c(c2)OCCc2sc(-c4ncnn4C4CCN(CCO)CC4)nc2-3)cn1` displayed an IC50 of under 1000 nM.

The compound `CC(=O)N1CCC(N(CCO)C(=O)c2nc3c(s2)CCOc2cc(-c4cnn(CC(C)(C)O)c4)ccc2-3)CC1` registered an IC50 of under 1000 nM.

In turn, `CC(C)n1cnnc1-c1nc2c(s1)CCOc1cc(CNCC(N)=O)ccc1-2` returned an IC50 of under 1000 nM.

Turning to `CN(C)CCCOc1ccc(-c2ccc3c(c2)OCCc2sc(-c4ncnn4CC(F)(F)F)nc2-3)cn1`, the IC50 was under 1000 nM.

Compound `CC(C)N(CCO)C(=O)c1nc2c(s1)CCOc1ccc(-c3cnn(C[C@@H](C)O)c3)cc1-2` gave an IC50 of under 1000 nM.

Compound `CC(C)n1ncnc1-c1nc2c(s1)CCOc1ccc(-c3c[nH]c(=O)[nH]c3=O)cc1-2` showed an IC50 of under 1000 nM.

`CS(=O)(=O)CCNc1ccc(-c2ccc3c(n2)-c2sc(-c4ncnn4-c4ccc(F)cc4F)cc2CCO3)cn1` came in with an IC50 of under 1000 nM.

In turn, `CC(=O)N1CCC(Nc2ccc3c(n2)-c2sc(-c4ncnn4-c4ccc(F)cc4F)cc2CCO3)CC1` yielded an IC50 of under 1000 nM.

`Cc1nc(-c2nc3c(s2)CCOc2cc(-c4cncn4CCO)ccc2-3)n(C(C)C)n1`: the IC50 was under 1000 nM.

In the case of `CC(C)n1ncnc1-c1nc2c(s1)CCOc1ccc(C3CN(C(=O)[C@@H](C)O)C3)cc1-2`, the IC50 was under 1000 nM.

For `C[C@H](O)Cn1cc(-c2ccc3c(c2)OCCc2sc(-c4ncnn4CC(F)(F)F)nc2-3)cn1`, the IC50 is under 1000 nM.

The compound `CC(C)n1ncnc1-c1nc2c(s1)CCOc1ccc(C#N)cc1-2` yielded an IC50 of under 1000 nM.

Take `Cc1nn(C)c(=O)n1-c1nc2c(s1)CCOc1cc(-c3cnn(CC(C)(C)O)c3)ccc1-2`: the IC50 was under 1000 nM.

In turn, `NCCn1cc(-c2ccc3c(c2)OCCc2sc(-c4ncnn4CC(F)(F)F)nc2-3)cn1` showed an IC50 of under 1000 nM.

`Cn1cc(-c2ccc3c(n2)-c2sc(-c4ncnn4-c4ccc(F)cc4F)cc2CCO3)cn1` had an IC50 of under 1000 nM.

Regarding `CNC(=O)c1ccc2c(c1)OCCc1cc(C(=O)N(C)c3cc(C(=O)NC[C@@H](C)O)ccc3Cl)sc1-2`, the IC50 was under 1000 nM.

In turn, `CC(C)n1nc(N)nc1-c1cc2c(s1)-c1ccc(-c3cnn(CC(C)(C)O)c3)cc1OCC2` came in with an IC50 of under 1000 nM.

The compound `CNC(=O)Cn1cccc(-c2ccc3c(c2)-c2nc(-c4ncnn4C(C)C)sc2CCO3)c1=O` gave an IC50 of under 1000 nM.

In the case of `O=C(c1nc2c(s1)CCOc1cc(-c3cn[nH]c3)ccc1-2)N1CCN(c2cccnc2)CC1`, the IC50 was under 1000 nM.

With `CC(C)N(CCO)C(=O)c1nc2c(s1)CCOc1cc(-c3cnc(N4CCN(C)CC4)nc3)ccc1-2`, the IC50 was under 1000 nM.

For the compound `O=C(c1ccccc1)N1CCN(C(=O)c2nc3c(s2)CCOc2cc(-c4cn[nH]c4)ccc2-3)CC1`, the IC50 was under 1000 nM.

In turn, `CC(C)n1ncnc1-c1nc2c(s1)CCOc1cc(-c3cccnc3F)ccc1-2` had an IC50 of under 1000 nM.

As to `CC(C)n1ncnc1-c1nc2c(s1)CCOc1cc(C3CN(C(=O)C(C)(C)O)C3)ccc1-2`, the IC50 is under 1000 nM.

The compound `CC(=O)N1CCCN(c2ccc3c(n2)-c2sc(-c4ncnn4-c4ccc(F)cc4F)cc2CCO3)CC1` came in with an IC50 of under 1000 nM.

For `COCCn1cccc(-c2ccc3c(c2)-c2nc(-c4ncnn4C(C)C)sc2CCO3)c1=O`, the IC50 was under 1000 nM.

Take `CN(C)CCN(C(=O)c1nc2c(s1)CCOc1cc(-c3cnn(CC(C)(C)O)c3)ccc1-2)C1CCCCC1`: the IC50 was under 1000 nM.

For `COc1cc(C)c(-c2ccc3c(n2)-c2sc(-c4ncnn4-c4ccc(F)cc4F)cc2CCO3)cn1`, the IC50 is under 1000 nM.

`O=C(c1nc2c(s1)CCOc1cc(-c3cn[nH]c3)ccc1-2)N1CCNCC1` had an IC50 of under 1000 nM.

As to `O=C(c1nc2c(s1)CCOc1cc(-c3cn[nH]c3)ccc1-2)N1CCN(C(=O)C2CC2)CC1`, the 50% inhibitory concentration (IC50) was under 1000 nM.

Take `CS(=O)(=O)N1CCN(C(=O)c2nc3c(s2)CCOc2cc(-c4cn[nH]c4)ccc2-3)CC1`: the IC50 was under 1000 nM.

On to `CN(C)C1CCN(C(=O)c2nc3c(s2)CCOc2cc(-c4cn[nH]c4)ccc2-3)CC1`, for which the half-maximal inhibitory concentration (IC50) was under 1000 nM.
